Experimental data: US20240094197A1, “Method for removing protein corona of the surface of nanometer particle” (ZHEJIANG UNIVERSITY, priority 2022, published 2024)
Where two headings read alike, the source gives them in different places.

Columns and labels:
BxPC3 cells [1] = assay: Transcytosis transport in tumor cells; assay type: cell-based, human; conditions: BxPC3 cells pretreated with EXO1 20 μM; serum-containing medium, with ultrasound stimulation
Description: BxPC3 cells (1×10^5 cells/mL, 1 mL) were cultured in a confocal dish for 24 h, and the culture medium was then replaced with 1 mL fresh serum-free medium. Next, the mixture of Cy5-labeled GL, LGL, PGL or LPGL liposome (equivalent to fluorescent lipids of 60 μg/mL, 20 μL) and serum-containing medium or serum-free medium was respectively added into the confocal dish, and subsequently treated with or without ultrasound stimulation (acoustic intensity: 2 W/cm^2, frequency: 3 MHz, duty cycle: 50%, duration time: 5 min). After incubation of 3 h, the dishes were washed twice with PBS. A total of 1×10^5 fresh cells in 1 mL of fresh serum-free medium was added to the dishes. The mixed cells were continuously incubated for 0 min, 30 min, and 120 min. The transcellular transport of liposome from previously added cells to newly added cells was photographed at incubation time of 0 min, 30 min, and 120 min with a CLSM using 640 nm excitation wavelength. Then the newly added cells at 120 min of incubation were washed away and collected into a centrifugal tube, and detected using flow cytometry. Meanwhile, BxPC3 cells pretreated with an exocytosis inhibitor EXO1 (20 μM) were tested using the same method to investigate the inhibition of transcellular transport.

[2] = system: 3D multicellular tumor spheroids of BxPC3; assay: Penetration in tumor spheroids (CLSM); assay type: cell-based, human; conditions: EXO1 20 μM pretreatment
Description: The 3D multicellular tumor spheroids of BxPC3 pretreated with or without exocytosis inhibitor EXO1 (20 μM) were transferred to a confocal dish containing fresh serum-free medium. The mixture of Cy5-labeled LPGL, PGL, LGL or GL liposome (equivalent to fluorescent lipids of 60 μg/mL, 30 μL) and fresh serum-containing medium were added, and treated with ultrasound stimulation (acoustic intensity: 2 W/cm^2, frequency: 3 MHz, duty cycle: 50%, duration time: 5 min), then incubated for 6 h. After washing with PBS, images were obtained with CLSM in XYZ-3D-stack at 25-μm intervals from apex to equator.

BxPC3 cells [3] = assay: Endocytic pathway in tumor cells (endocytosis inhibitors); assay type: cell-based, human; conditions: chlorpromazine 50 μM, genistein 200 μM, wortmannin 5 μM, cytochalasin D 5 μM; for inhibition rate on the endocytosis of LPGL in BxPC3 cells: serum-containing medium; for inhibition at 5 µM / inhibition at 200 µM / inhibition at 50 µM: Homo sapiens
Description: BxPC3 cells (1×10^5 cells/mL, 1 mL) were cultured in 12-well plates for 24 h, and the culture medium was then replaced with 1 mL fresh serum-free medium. Chlorpromazine (50 μM, clathrin-mediated endocytosis inhibitor), genistein (200 μM, caveolae-mediated endocytosis inhibitor), wortmannin (5 μM, phosphatidylinositol 3-kinases-mediated macropinocytosis inhibitor), or cytochalasin D (5 μM, actin-polymerization inhibitor) was added to the medium for 2 h of incubation. Another group of BxPC3 cells without any endocytosis inhibitor treatment was cultured for 2 h as the control group. Next, the mixture of Cy5-labeled LPGL liposome (equivalent to fluorescent lipids of 60 μg/mL, 20 μL) and serum-containing medium or serum-free medium was respectively added into the plate, and subsequently treated with or without ultrasound stimulation (acoustic intensity: 2 W/cm^2, frequency: 3 MHz, duty cycle: 50%, duration time: 5 min). After incubation of 3 h, cells were washed, digested and collected into a centrifugal tube, and the mean fluorescence intensity was detected by flow cytometry.

[4] = system: three-dimensional (3D) multicellular tumor spheroids of BxPC3; assay: Cytotoxicity on 3D multicellular tumor spheroids (Alamar Blue); assay type: cell-based, human; conditions: serum-containing medium, ultrasound stimulation, 72 h, equivalent to GEM 0~10 μM
Description: (§1) The cytotoxicity of the liposome was tested on the three-dimensional (3D) multicellular tumor spheroids of BxPC3 or Huh7. The tumor spheroids were established using the hanging drop method. The mixture of LPGL, PGL, LGL, GL or free gemcitabine (GEM) and serum-containing medium were respectively added into the wells containing three-dimensional (3D) multicellular tumor spheroids of BxPC3 or Huh7 at the final testing concentrations (equivalent to GEM: 0˜10 μM), and treated with ultrasound stimulation (acoustic intensity: 2 W/cm^2, frequency: 3 MHz, duty cycle: 50%, duration time: 5 min), then incubated for 72 h. Meanwhile, the LPL liposome with equimolar ratio to LPGL liposome was tested as a control. Afterward, the culture medium was replaced with a mixture of 90 μL fresh culture medium and 10 μL Alamar Blue Cell Viability Reagent, and was continuously incubated for 12 h. The sample plates were then detected using a plate reader at 530 nm excitation and 590 nm emission to obtain fluorescence intensity readouts. In addition, apoptosis induced by the liposome in spheroids were further determined by the TdT-mediated dUTP nick end labeling (TUNEL) assay, and the positive TUNEL-staining cells were examined by CLSM.

[5] = system: three-dimensional (3D) multicellular tumor spheroids of Huh7; assay: as above; assay type: cell-based, human; conditions: serum-containing medium, ultrasound stimulation, 72 h, equivalent to GEM 0~10 μM
Description: as §1

[6] = system: 3D multicellular tumor spheroids of BxPC3; assay: Morphology and apoptosis of tumor spheroids (light microscope, TUNEL staining); assay type: cell-based, human; conditions: equivalent to GEM 0.1 μM, serum-containing medium, ultrasound stimulation, 72 h
Description: The method for inhibiting 3D multicellular tumor spheroids of BxPC3 with free GEM and different liposomes is as follows: the mixture of LPGL, PGL, LGL, GL liposome, free gemcitabine (GEM) or PBS and serum-containing medium was incubated with 3D multicellular tumor spheroids of BxPC3 at the final testing concentrations (equivalent to GEM: 0.1 μM), and treated with ultrasound stimulation (acoustic intensity: 2 W/cm^2, frequency: 3 MHz, duty cycle: 50%, duration time: 5 min), then incubated for 72 h, the morphology of 3D multicellular tumor spheroids of BxPC3 in different treatment group was observed using light microscope and TUNEL staining, scale bar=500 μm. […] (10E) The mean integrated optical density (IOD) of fluorescence in two inner layers of 75 μm and 100 μm (as shown in FIG. 10 D) in 3D multicellular tumor spheroids of BxPC3 was analyzed using Image-pro Plus 6.0 software to evaluate the penetration ability of liposome.
The cytotoxicity of the liposome was tested on the three-dimensional (3D) multicellular tumor spheroids of BxPC3 or Huh7. […] The sample plates were then detected using a plate reader at 530 nm excitation and 590 nm emission to obtain fluorescence intensity readouts. In addition, apoptosis induced by the liposome in spheroids were further determined by the TdT-mediated dUTP nick end labeling (TUNEL) assay, and the positive TUNEL-staining cells were examined by CLSM.

[7] = system: human-derived tumor xenograft of PDA; assay: In vivo antitumor activity (PDA model); parameters: species or system BALB/c nude mice
Description: BALB/c nude mice bearing human-derived tumor xenograft of PDA in the subcutaneous region were selected and grouped into seven groups (n=6). Each group was intravenously injected with LPGL liposome dispersion (dose equivalent to GEM 10 mg/kg), PGL liposome dispersion (dose equivalent to GEM 10 mg/kg), LGL liposome dispersion (dose equivalent to GEM 10 mg/kg), GL liposome dispersion (dose equivalent to GEM 10 mg/kg), GEM PBS7.4 dispersion (dose equivalent to GEM 10 mg/kg), LPL liposome dispersion or PBS 7.4 buffer respectively every two days for a total of four times. The 16th day was the first time of intravenous injection administration. The tumor site of each group was treated with ultrasound stimulation (acoustic intensity: 2 W/cm^2, frequency: 3 MHz, duty cycle: 50%, duration time: 20 min) after post-injection. The width and length of the tumors and the bodyweight of mice were measured during the treatment. At the end of the experiment at 36 days, the blood was collected, then mice were euthanized, tumors were dissected and weighed. The therapeutic efficacy was evaluated by comparing tumor size in the experimental group and control group. The tumor inhibition rate=100%×(mean tumor weight of PBS group−mean tumor weight of experimental group)/mean tumor weight of PBS group. The dissected tumors were fixed with 4% neutral buffered paraformaldehyde and embedded in paraffin. Tissue sections of 5-μm thick were mounted onto glass slides and stained with hematoxylin-eosin (H&E), and then examined by light microscopy. The immunohistochemistry staining of Ki67 was tested to investigate the percentage of proliferous tumor cells positively stained in the examined field. Tissue sections were subjected to Ki67 staining using the Ki67-antibody Assay Kit according to the manufacturer's protocol. Apoptotic cells were also identified using TUNEL Apoptosis Assay Kit and examined using CLSM

[8] = system: human-derived tumor xenograft of HCC; assay: In vivo antitumor activity and toxicity (HCC model); parameters: species or system BALB/c nude mice
Description: The study of liposome and its characteristics and anti-tumor activity in Example 2 was the same as that in Example 1. The difference was that LPGL liposome and LGL liposome were prepared by replacing DSPE-PEG2000-RGD with DSPE-PEG2000-NGR. The DSPE-PEG2000-NGR refers to 1,2-distearoyl-sn-glycero-3-phosphoethanolamine-N-[methoxy (polyethylene glycol)-2000]-NGR targeting peptide, the amino acid sequence of NGR targeting peptide was Gly (glycine)-Gly (glycine)-Cys (cysteine)-Asn (asparagine)-Gly (glycine)-Arg (arginine)-Cys (cysteine) with the amino acid sequence GGCNGRC (SEQ ID NO: 2).
BALB/c nude mice bearing human-derived tumor xenograft of hepatocellular carcinoma (HCC) in the subcutaneous region were selected and grouped into six groups (n=9, wherein three mice of each group were selected to measure the accumulation content of gemcitabine triphosphate active metabolite (dFdCTP) in the tumor after 24 h of first intravenous injection). Same to the PDA model in the Example 1, after BALB/c nude mice subcutaneously bearing human-derived tumor xenograft of HCC were injected with free GEM PBS 7.4 buffer, GL liposome, NGR modified LGL liposome, PGL liposome, NGR modified LPGL liposome or PBS 7.4, the tumor site was treated with ultrasound stimulation (+US, acoustic intensity: 2 W/cm^2, frequency: 3 MHz, duty cycle: 50%, duration time: 20 min). At 24 h after firstly intravenous injection, the accumulation content of gemcitabine triphosphate active metabolite (dFdCTP) in the tumor was shown in FIG. 17B. As GEM could quickly be phosphorylated into its active metabolite of GEM triphosphate (dFdCTP) in tumor, so the dFdCTP was widely used as a quantitative index of GEM.
The tumor size and the bodyweight of mice in each group was shown in FIG. 17C, FIG. 17D, FIG. 17E and FIG. 17F. […] At the end of the 34-day experiment, the mice serum was sampled, and the content of alanine aminotransferase (ALT), aspartate aminotransferase (AST), creatinine (CRE) and blood urea nitrogen (BUN) in the serum was detected to evaluate the in vivo hepatic and renal toxicity (as shown in Table 4).

[9] = BXPC-3, serum-containing medium, with ultrasound stimulation, read-out: inhibition rate on the endocytosis of LPGL in BxPC3 cells
[10] = BXPC-3, serum-containing medium, without ultrasound stimulation, read-out: inhibition rate on the endocytosis of LPGL in BxPC3 cells
[11] = BXPC-3, serum-free medium, without ultrasound stimulation, read-out: inhibition rate on the endocytosis of LPGL liposome in BxPC3 cells
[12] = mice serum, end of the 34-day experiment, LGL and LPGL are NGR modified

COC(=O)c1ccccc1NC(=O)c1ccc(F)cc1 [EXO1]
effect on transcytosis transport of LPGL liposome (BxPC3 cells [1]): could be inhibited
effect on permeability of LPGL liposome into the 3D spheroid of BxPC3 [2]: could significantly inhibit the permeability of LPGL liposome

C=C1[C@@H](C)[C@H]2[C@H](Cc3ccccc3)NC(=O)[C@]23[C@H](OC(C)=O)/C=C/[C@@](C)(O)C(=O)[C@@H](C)C/C=C/[C@H]3[C@@H]1O [cytochalasin D]
inhibition rate on the endocytosis of LPGL in BxPC3 cells (BxPC3 cells [3]; with ultrasound stimulation): 17.0%
inhibition rate on the endocytosis of LPGL in BxPC3 cells (BxPC3 cells [3]; without ultrasound stimulation): 10.2%
inhibition rate on the endocytosis of LPGL liposome in BxPC3 cells (BxPC3 cells [3]; serum-free medium, without ultrasound stimulation): 19.9%

COC[C@H]1OC(=O)c2coc3c2[C@@]1(C)C1=C(C3=O)[C@@H]2CCC(=O)[C@@]2(C)C[C@H]1OC(C)=O [wortmannin]
inhibition at 5 µM (BxPC3 cells [3]; BXPC-3, read-out: inhibition rate on the endocytosis of LPGL in BxPC3 cells, serum-containing medium, with ultrasound stimulation): 24.8%
inhibition at 5 µM (BxPC3 cells [3]; BXPC-3, read-out: inhibition rate on the endocytosis of LPGL in BxPC3 cells, serum-containing medium, without ultrasound stimulation): 23.5%
inhibition at 5 µM (BxPC3 cells [3]; BXPC-3, read-out: inhibition rate on the endocytosis of LPGL liposome in BxPC3 cells, serum-free medium, without ultrasound stimulation): 13.4%

O=c1c(-c2ccc(O)cc2)coc2cc(O)cc(O)c12 [genistein]
inhibition at 200 µM (BxPC3 cells [3]; [9]): 52.5%
inhibition at 200 µM (BxPC3 cells [3]; [10]): 28.9%
inhibition at 200 µM (BxPC3 cells [3]; [11]): 57.6%

Nc1ccn([C@@H]2O[C@H](CO)[C@@H](O)C2(F)F)c(=O)n1 [GEM, gemcitabine]
cytotoxicity against 3D multicellular tumor spheroids of BxPC3 [4]: dose-dependent cytotoxicity
cytotoxicity against 3D multicellular tumor spheroids of Huh7 [5]: dose-dependent cytotoxicity
apoptotic cells in BxPC3 spheroids (TUNEL staining) [6]: few apoptotic cells distributed around the spheroid's periphery
morphology of BxPC3 spheroids (light microscope) [6]: no significant change in morphology
side effects: body weight, white blood cell (WBC) and blood platelet ([7]; during treatment / end of the 36-day experiment): distinct body weight loss, and hematological damage on sharp decrease of white blood cell (WBC) and blood platelet
H&E staining of excised tumors, vs LPL liposome and PBS ([7]; end of the 36-day experiment): much less densely populated cells
distribution of apoptotic cells in tumor (TUNEL assay) ([7]; end of the 36-day experiment): merely existed around the tumor periphery
change of tumor volume ([7]; i.v. every two days, four times, dose equivalent to GEM 10 mg/kg, ultrasound on tumor 20 min): firstly delayed, but then recovered to grow when stopping administration
bodyweight of mice ([8]; during treatment): gradually decreased
content of AST, ALT, BUN and CRE relative to normal range ([8]; mice serum, end of the 34-day experiment): beyond the maximum of normal limit
ALT [8, 12]: 81.1 ± 10.5 U/L
AST [8, 12]: 218.6 ± 25.3 U/L
BUN [8, 12]: 47.6 ± 5.0 mg/dL
CRE [8, 12]: 0.68 ± 0.17 mg/dL

CN(C)CCCN1c2ccccc2Sc2ccc(Cl)cc21 [chlorpromazine]
inhibition at 50 µM (BxPC3 cells [3]; [9]): 24.4%
inhibition at 50 µM (BxPC3 cells [3]; [10]): 35.9%
inhibition at 50 µM (BxPC3 cells [3]; [11]): 21.1%
